{"source": "patent US4138491A", "about": "“Method for treating diabetes” (Daiichi Seiyaku Co., Ltd., priority 1976, dated 1979)", "key": {"[1]": {"system": "blood platelet aggregation induced by collagen in rat platelet rich plasma", "test": "Blood platelet aggregation inhibiting activity (collagen induced, in vitro)", "type": "cell-based", "details": "read-out: Platelet Aggregation Inhibition Activity, ID50", "description": "It is generally said that blood platelet aggregability is accelerated in a diabetes patient and that this secondarily causes blood vessel disorders. […] Thus, based on this the compounds of the present invention are expected to be useful in preventing and improving the secondary vasular lesions of diabetes mellitus.\nCitrated rat blood was centrifuged in order to obtain platelet rich plasma, and to 0.4 ml of this plasma was added 50 μl of sample solution. To the resulting solution was added 50 μl of collagen suspension under stirring, and platelet aggregation reaction was determined according to the method of Born [Nature, Vol. 194, pp. 927 (1962)]. The concentration of the sample (ID50) which inhibits 50% of the aggregation reaction of the control without the test sample added is shown in Table 6 below."}, "[2]": {"system": "serum lactate level", "test": "Influence on serum lactate level, repeated administration for 4 days", "type": "in vivo, normal rat", "details": "Compound A 200 mg/kg/day (phenformin dose not given)", "description": "The biguanide drugs heretofore used as a treatment for diabetes are said undesirably to cause acidosis due to an increase of serum lactate level when such drugs are repeatedly administered. The compounds of the present invention were repeatedly administered for 4 days to normal rats and the serum lactate level was determined every day to compare such with the administration of phenformine which is one example of a biguanide drug.\nCompound A was repeatedly administered for 4 days to normal rats in a dosage of 200 mg/kg/day, and blood was sampled with the passage of time in order to determine the serum lactate level."}, "[3]": {"system": "blood sugar level", "test": "Glucose tolerance test in normal rats (oral compound, glucose load 1 hour later)", "type": "in vivo, normal rat", "description": "(§1) One index for the treatment of diabetes is to improve this glucose tolerance. The compound of the present invention was orally administered to normal rats, Streptozotocin-induced mildly diabetic rats and AYKK-mice, and thereafter glucose was administered intraperitoneally 1 hour later, and the glucose tolerance was examined. […] Further, a lowering of blood sugar in the glucose tolerance test using normal rats was examined with the passage of time, and the results obtained are given in Table 1 below.\n(§2) A sample aqueous solution or suspension was orally administered to the test animals which had been fasted for 24 hours and one hour later glucose was intraperitoneally or subcutaneously administered to the test animals. Thereafter, blood was sampled from the tail vein with the passage of time in order to determine the blood sugar level by the glucose-oxidase method."}, "[4]": {"system": "blood sugar level", "test": "Glucose tolerance test in AYKK mice", "type": "in vivo, AYKK mouse", "details": "25 mg/kg PO; glucose 1 g/kg; sum of increments at 15, 30, 60, 90 min vs control; 100 = no improvement", "description": "as §1, §2\n*5AYKK-mouse was obtained by mating a yellow mouse having symptoms of […]"}, "[5]": {"system": "blood sugar level", "test": "Glucose tolerance test in streptozotocin-induced mildly diabetic rats", "type": "in vivo, rat (Wistar strain)", "details": "10 mg/kg PO; glucose 1 g/kg; sum of increments at 15, 30, 60, 90 min vs control; 100 = no improvement", "description": "as §1, §2\n*4The streptozotocin-induced mildly diabetic rats were produced by […]"}, "[6]": {"system": "blood sugar level", "test": "Blood sugar lowering activity, fasted beagle", "type": "in vivo, beagle dog", "details": "25 mg/kg PO", "description": "(§3) The compounds of the present invention were orally administered to normal rats, mice, dogs and hereditary diabetic mice(AYKK-mice), and the blood sugar lowering activity was examined.\n(§4) Test animals which were used included animals which had been fasted for 24 hours to achieve an empty stomach, and animals which had been fed to achieve a full stomach without any restriction of diet. A sample aqueous solution or suspension was orally administered, and blood was sampled with the passage of time from the tail vein or the cephalic vein in order to determine the level of blood sugar by the glucose-oxidase method."}, "[7]": {"test": "Acute toxicity (rat)", "details": "in vivo, read-out: Acute Toxicity (rat) ID50"}, "[8]": {"system": "blood insulin", "test": "Insulin releasing action, fed rats", "type": "in vivo, rat", "details": "25 mg/kg iv", "description": "(§5) Among the test animals fed rats were anesthetized by administration of pentobarbital (40 mg/kg, ip), and administered, intravenously with an isotonic sodium chloride solution of Compound A. An aqueous solution of the sample was orally administered to fed mice. In both cases blood was sampled from the tail vein with the passage of time, and the blood insulin was determined by the radioimmunoassay method of Morgen et al [Diabetes, Vol. 12, pp 115 (1963)]. At the same time blood sugar was also determined. […] The amount of insulin released in Table 4 was obtained by determining the difference between the blood insulin level at 5 points (5, 10, 20, 30, 40 minutes) during a 40 minute period after administration of the sample in the case of rats or 3 points (0.5, 1.0, 2.0 hours) during a 2 hour period after administration of the sample in the case of mice and the blood insulin level at 0 minute just before administration of the sample and then by summing up these differences."}, "[9]": {"system": "blood sugar level", "test": "Blood sugar lowering activity, fed mouse", "type": "in vivo", "details": "25 mg/kg PO", "description": "as §3, §4"}, "[10]": {"system": "blood sugar level", "test": "Blood sugar lowering activity, fed AγKK (AYKK) mouse, hereditary diabetic", "type": "in vivo", "details": "fed AγKK mouse", "description": "as §3, §4"}, "[11]": {"system": "blood insulin", "test": "Insulin releasing action, fed mice", "type": "in vivo, mouse", "details": "fed mice, 25 mg/kg po", "description": "as §5"}, "[12]": {"system": "blood sugar level", "test": "Blood sugar lowering activity, fasted rat", "type": "in vivo", "description": "as §3, §4"}}}
{"smiles": "c1ccc(C(CC2=NCCN2)c2ccccc2)cc1", "note": "[Compound A, 2-(2,2-diphenyl)ethylimidazoline]", "values": [{"measurement": "IC50", "setting": "[1]", "value": 70, "unit": "µM"}, {"measurement": "Serum Lactate Level, 0 Day", "setting": "[2]; 0 Day", "value": "0.993±0.051", "unit": "μ mol/ml"}, {"measurement": "Serum Lactate Level, After 1 Day", "setting": "[2]; After 1 Day", "value": "1.386±0.073", "unit": "μ mol/ml"}, {"measurement": "Serum Lactate Level, After 4 Days", "setting": "[2]; After 4 Days", "value": "1.125±0.113", "unit": "μ mol/ml"}, {"measurement": "Glucose Tolerance Improving Activity", "setting": "[3]; 10 mg/kg PO, glucose 2 g/kg, sum of increments at 15, 30, 60, 90 min vs control, 100 = no improvement", "value": 15.7, "unit": "%"}, {"measurement": "Blood Glucose Level, 0 min", "setting": "[3]; 10 mg/kg, glucose 2 g/kg, 0 min", "value": "72 ± 3", "unit": "mg/dL"}, {"measurement": "Blood Glucose Level, 15 min", "setting": "[3]; 10 mg/kg, glucose 2 g/kg, 15 min", "value": "83 ± 6", "unit": "mg/dL"}, {"measurement": "Blood Glucose Level, 30 min", "setting": "[3]; 10 mg/kg, glucose 2 g/kg, 30 min", "value": "87 ± 4", "unit": "mg/dL"}, {"measurement": "Blood Glucose Level, 60 min", "setting": "[3]; 10 mg/kg, glucose 2 g/kg, 60 min", "value": "76 ± 3", "unit": "mg/dL"}, {"measurement": "Blood Glucose Level, 90 min", "setting": "[3]; 10 mg/kg, glucose 2 g/kg, 90 min", "value": "68 ± 4", "unit": "mg/dL"}, {"measurement": "Blood Glucose Level, before glucose load (-60 min.)", "setting": "[3]; 10 mg/kg, glucose 2 g/kg, -60 min", "value": "84 ± 1", "unit": "mg/dL"}, {"measurement": "blood sugar level maintained after glucose load", "setting": "[3]; normal rats, Table 1, in words", "value": "maintains the blood sugar level in the range of the fasting blood sugar level"}, {"measurement": "rise in blood sugar level due to the glucose load", "setting": "[3]; normal rats, Table 1, in words", "value": "scarcely any rise in blood sugar level"}, {"measurement": "Glucose Tolerance Improving Activity", "setting": "[4]", "value": 52.5, "unit": "%"}, {"measurement": "Glucose Tolerance Improving Activity", "setting": "[5]", "value": 25.2, "unit": "%"}, {"measurement": "Blood Sugar Level (control = 100), 1 Hr", "setting": "[6]; 1 h", "value": 70, "unit": "%"}, {"measurement": "Blood Sugar Level (control = 100), 2 Hrs", "setting": "[6]; 2 h", "value": 66, "unit": "%"}, {"measurement": "Blood Sugar Level (control = 100), 3 Hrs", "setting": "[6]; 3 h", "value": 64, "unit": "%"}, {"measurement": "LD50", "setting": "[7]", "value": 562, "unit": "mg/kg"}, {"measurement": "Blood Sugar Level", "setting": "[8]; after 90 minutes, control = 100", "value": 62, "unit": "%"}, {"measurement": "Amount of Insulin Released", "setting": "[8]; sum of differences at 5, 10, 20, 30, 40 min", "value": "250±15", "unit": "μunit/ml"}, {"measurement": "Blood Sugar Level (control = 100), 1 Hr", "setting": "[9]; 1 h", "value": 54, "unit": "%"}, {"measurement": "Blood Sugar Level (control = 100), 2 Hrs", "setting": "[9]; 2 h", "value": 67, "unit": "%"}, {"measurement": "Blood Sugar Level (control = 100), 3 Hrs", "setting": "[9]; 3 h", "value": 65, "unit": "%"}, {"measurement": "Blood Sugar Level (control = 100), 5 Hrs", "setting": "[9]; 5 h", "value": 76, "unit": "%"}, {"measurement": "Blood Sugar Level (control = 100), 1 Hr", "setting": "[10]; 10 mg/kg PO", "value": 72, "unit": "%"}, {"measurement": "Blood Sugar Level (control = 100), 2 Hrs", "setting": "[10]; 10 mg/kg PO", "value": 71, "unit": "%"}, {"measurement": "Blood Sugar Level (control = 100), 3 Hrs", "setting": "[10]; 10 mg/kg PO", "value": 62, "unit": "%"}, {"measurement": "Blood Sugar Level (control = 100), 5 Hrs", "setting": "[10]; 10 mg/kg PO", "value": 63, "unit": "%"}, {"measurement": "Blood Sugar Level (control = 100), 1 Hr", "setting": "[10]; 25 mg/kg PO", "value": 44, "unit": "%"}, {"measurement": "Blood Sugar Level (control = 100), 2 Hrs", "setting": "[10]; 25 mg/kg PO", "value": 46, "unit": "%"}, {"measurement": "Blood Sugar Level (control = 100), 3 Hrs", "setting": "[10]; 25 mg/kg PO", "value": 41, "unit": "%"}, {"measurement": "Blood Sugar Level (control = 100), 5 Hrs", "setting": "[10]; 25 mg/kg PO", "value": 49, "unit": "%"}, {"measurement": "Blood Sugar Level", "setting": "[11]; after 2 hours, control = 100", "value": 69.8, "unit": "%"}, {"measurement": "Amount of Insulin Released", "setting": "[11]; sum of differences at 0.5, 1.0, 2.0 hours", "value": "57±14.2", "unit": "μunit/ml"}, {"measurement": "Blood Sugar Level (control = 100), 1 Hr", "setting": "[12]; 10 mg/kg PO", "value": 76, "unit": "%"}, {"measurement": "Blood Sugar Level (control = 100), 2 Hrs", "setting": "[12]; 10 mg/kg PO", "value": 71, "unit": "%"}, {"measurement": "Blood Sugar Level (control = 100), 3 Hrs", "setting": "[12]; 10 mg/kg PO", "value": 71, "unit": "%"}, {"measurement": "Blood Sugar Level (control = 100), 5 Hrs", "setting": "[12]; 10 mg/kg PO", "value": 65, "unit": "%"}, {"measurement": "Blood Sugar Level (control = 100), 1 Hr", "setting": "[12]; 25 mg/kg PO", "value": 72, "unit": "%"}, {"measurement": "Blood Sugar Level (control = 100), 2 Hrs", "setting": "[12]; 25 mg/kg PO", "value": 67, "unit": "%"}, {"measurement": "Blood Sugar Level (control = 100), 3 Hrs", "setting": "[12]; 25 mg/kg PO", "value": 57, "unit": "%"}, {"measurement": "Blood Sugar Level (control = 100), 5 Hrs", "setting": "[12]; 25 mg/kg PO", "value": 67, "unit": "%"}]}
